# Reference: the supplement of paper PMC10307832
# Assays:
# Assay in all cases: relative viability (nuclei count vs DMSO), 5 days (fraction); higher = more cells survive
# [1] = compound: NC(=O)[C@@H](CCC(F)(F)F)N(Cc1ccc(-c2ncon2)cc1F)S(=O)(=O)c1ccc(Cl)cc1 [Avagacestat] + O=C(c1cc(Cc2n[nH]c(=O)c3ccccc23)ccc1F)N1CCN(C(=O)C2CC2)CC1 [Olaparib] (partner 8 µM)
# How it was run: (§1)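 Lung cancer cell lines in 1536-well plates were dosed by pin tool the day after seeding, either with one drug alone or with a fixed anchor-drug dose plus five library-drug doses (not always all listed) in √10 steps. After 5 days, cells were fixed and their nuclei stained in one step (final 0.05% Triton X-100, 1% formaldehyde, 1 ug/ml Hoechst), then counted on 4× images. Relative viability is the nuclei count in treated wells divided by that in vehicle wells. Values are medians of duplicate plates.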
# [2] = compound: NC(=O)[C@@H](CCC(F)(F)F)N(Cc1ccc(-c2ncon2)cc1F)S(=O)(=O)c1ccc(Cl)cc1 [Avagacestat] + CC(=O)Nc1cccc(-n2c(=O)n(C3CC3)c(=O)c3c(Nc4ccc(I)cc4F)n(C)c(=O)c(C)c32)c1 [Trametinib] (partner 0.02 µM)
# How it was run: as §1
# [3] = compound: NC(=O)[C@@H](CCC(F)(F)F)N(Cc1ccc(-c2ncon2)cc1F)S(=O)(=O)c1ccc(Cl)cc1 [Avagacestat] + N=C(N)NC(=N)NCCc1ccccc1 [Phenformin] (partner 250 µM)
# How it was run: as §1
# [4] = compound: NC(=O)[C@@H](CCC(F)(F)F)N(Cc1ccc(-c2ncon2)cc1F)S(=O)(=O)c1ccc(Cl)cc1 [Avagacestat]
# How it was run: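 In 1536-well plates, lung cancer cell lines rested overnight at 37 °C before five library-drug doses (not always all listed), √10 apart, were pinned onto vehicle-anchored plates. Nuclei were counted with MetaXpress from 4× Hoechst images taken after 5 days without medium change. Viability compares treated-well with vehicle-well nuclei as a median over plates, and plates needed control CV below 25% plus at least one doubling to pass.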
Cell Line,relative viability ([1]; first compound 0.08 µM),relative viability ([1]; first compound 0.253 µM),relative viability ([1]; first compound 0.8 µM),relative viability ([1]; first compound 2.53 µM),relative viability ([1]; first compound 8 µM),relative viability ([2]; first compound 0.08 µM),relative viability ([2]; first compound 0.253 µM),relative viability ([2]; first compound 0.8 µM),relative viability ([2]; first compound 2.53 µM),relative viability ([2]; first compound 8 µM),relative viability ([3]; first compound 0.08 µM),relative viability ([3]; first compound 0.253 µM),relative viability ([3]; first compound 0.8 µM),relative viability ([3]; first compound 2.53 µM),relative viability ([3]; first compound 8 µM),relative viability ([4]; 0.08 µM),relative viability ([4]; 0.253 µM),relative viability ([4]; 0.8 µM),relative viability ([4]; 2.53 µM),relative viability ([4]; 8 µM)
NCI-H2228,0.642,0.862,0.8,0.658,0.59,0.591,0.535,0.753,0.59,0.354,0.417,0.263,0.271,0.296,0.243,1.07,1.22,1.29,0.9,1.01
HCC-78,0.786,0.948,0.632,0.67,0.712,0.878,0.933,0.888,0.789,0.726,0.71,0.763,0.811,0.66,0.724,1.07,1.01,1.18,0.801,0.915
NCI-H596,0.741,0.62,0.804,0.613,0.573,0.741,0.783,0.794,0.817,0.7,0.78,0.717,0.867,0.699,0.653,1.06,0.986,0.985,1.04,0.936
UMC-11,0.387,0.698,0.356,0.385,0.389,0.752,0.686,0.799,0.789,0.675,0.36,0.352,0.364,0.341,0.321,1.04,1.07,1.1,1.02,1.06
NCI-H441,0.679,0.592,0.656,0.803,0.613,0.52,0.462,0.449,0.515,0.411,1.23,0.957,1.02,0.917,0.676,1.32,1.61,1.09,1.24,0.794
EKVX,1.04,0.926,0.918,0.73,0.769,0.468,0.39,0.348,0.303,0.298,0.234,0.259,0.278,0.256,0.229,1.17,1.07,1.19,0.886,0.871
NCI-H1755,0.894,0.957,0.901,0.914,0.884,0.837,0.884,0.8,0.777,0.729,0.714,0.652,0.655,0.623,0.577,1.03,1.1,1.17,0.941,0.964
SW 900,1.04,0.96,0.982,0.634,0.896,1.08,0.82,0.872,0.763,0.713,0.781,0.641,0.543,0.571,0.627,1.07,1.04,1.06,0.967,0.979
NCI-H647,0.766,0.663,0.626,0.508,0.366,0.475,0.502,0.463,0.396,0.384,0.534,0.587,0.692,0.487,0.414,0.992,1.07,1.13,0.922,0.899
EPLC-272H,0.939,1.04,0.905,0.783,0.635,0.309,0.295,0.316,0.333,0.248,0.309,0.321,0.321,0.306,0.328,0.989,0.922,1.07,1,0.911
NCI-H460,0.549,0.565,0.532,0.385,0.36,0.223,0.143,0.13,0.112,0.1,0.597,0.866,0.771,0.337,0.379,1.09,1.31,1.03,0.942,0.951
NCI-H1915,0.264,0.28,0.257,0.249,0.227,0.29,0.305,0.254,0.3,0.252,0.396,0.396,0.368,0.412,0.357,1.04,1.21,1.06,1.03,0.978
NCI-H2009,0.718,0.73,0.779,0.667,0.66,0.267,0.245,0.283,0.252,0.251,0.562,0.595,0.514,0.491,0.455,1.04,1.09,1.04,1.04,0.912
NCI-H650,0.399,0.524,0.403,0.427,0.412,1.02,1.06,0.988,1,1.06,0.484,0.456,0.461,0.524,0.41,1.02,0.966,1.05,1.16,0.872
NCI-H1793,1.04,0.601,1.11,0.827,0.616,0.52,0.536,0.459,0.519,0.479,0.411,0.291,0.337,0.284,0.319,1.04,1.11,1.06,0.858,0.846
NCI-H1650,0.961,0.893,0.86,0.917,0.936,0.696,0.614,0.73,0.678,0.588,0.446,0.416,0.484,0.455,0.412,1.1,1.08,0.95,1.13,0.881
NCI-H1395,0.463,0.475,0.516,0.359,0.435,1.02,1.05,0.926,0.803,0.949,0.424,0.456,0.432,0.45,0.457,0.909,0.903,0.97,0.875,0.861
NCI-H1355,0.851,0.778,0.73,0.691,0.718,0.449,0.393,0.447,0.386,0.366,0.499,0.441,0.465,0.422,0.41,1.07,1.2,1.03,0.876,0.874
HOP-62,0.411,0.502,0.211,0.564,0.371,0.381,0.372,0.4,0.323,0.304,0.874,0.775,0.76,0.657,0.492,1.15,1.17,1.03,0.991,0.895
ChaGo-K-1,0.431,0.435,0.394,0.437,0.394,0.95,0.933,0.897,0.817,0.797,0.599,0.53,0.511,0.49,0.514,1.13,0.948,0.969,0.99,0.889
NCI-H23,0.302,0.316,0.315,0.335,0.296,0.43,0.261,0.392,0.414,0.4,0.941,0.86,0.761,0.859,0.851,1.01,1.08,1.17,1.03,0.944
NCI-H2170,0.78,0.722,0.612,0.64,0.582,1,1.17,1,0.867,0.881,0.418,0.411,0.377,0.406,0.382,1.08,1.18,0.994,0.938,0.932
EMC-BAC-2,0.542,0.626,0.623,0.548,0.616,0.986,1.2,1.05,0.955,1.02,0.518,0.607,0.574,0.522,0.489,1.22,1.08,1.15,1.08,1.1
NCI-H522,0.566,0.715,0.656,0.691,0.621,0.748,0.74,0.734,0.72,0.795,0.71,0.59,0.669,0.641,0.649,0.922,1.04,0.969,1.12,0.938
NCI-H2347,0.611,0.589,0.601,0.548,0.554,0.283,0.324,0.388,0.327,0.283,0.363,0.537,0.602,0.448,0.357,1.1,1.07,1.13,1.03,0.97
SW 1573,0.643,0.572,0.465,0.472,0.47,0.75,0.679,0.519,0.629,0.462,0.498,0.431,0.366,0.369,0.341,1.14,1.14,1.06,0.972,0.895
